Results on one compound are retold here after US10322097B2, “Treatment of subjects with multidrug-resistant cancer” (priority 2015, dated 2019).

SMILES strings stand for the structures.

Test [1] concerns SGC-7901 (Gastric) cisplatin sensitive cancer cells. Put plainly: MTT cytotoxicity assay, SGC-7901 cisplatin sensitive. In kind it is cell-based, human. The following applies: MTT, 3 days; read-out: IC50 SGC-7901 (Gastric) (Cisplatin sensitive). How it is done: (§1) Cell cultures and cytotoxicity assays have been used. Celastrol was dissolved in DMSO at a final concentration of 100 mmol/L and stored at −20° C. Cytotoxicity was assessed using the 3-(4,5-dimethylthiazol-2-yl)-2,5-diphenyltetrazolium bromide assay. 4000 cells from A2780 cisplatin sensitive/resistant ovarian cancer cells or SGC-7901 cisplatin sensitive/resistant gastric cancer cells were seeded on 96-well plates per well. After overnight pre-incubation, the cells were exposed to different concentrations of celastrol (0.039-100 μmol/L) or cisplatin for 3 days. Subsequently, 10 μL of MTT reagents were added to each well and incubated at 37° C. for 4 hours followed by the addition of 100 μL solubilization buffer (10% SDS in 0.01 mol/L HCl) and overnight incubation. Absorbance at 585 nm was determined from each well the next day. The percentage of cell viability was calculated using the following formula: Cell viability (%)=Cells number treated/Cells number DMSO control×100. Data were obtained from three independent experiments.

Test [2] concerns A2780 (Ovary) cisplatin resistant cancer cells. Put plainly: MTT cytotoxicity assay, A2780 cisplatin resistant. The format is cell-based, human. Here is the method: as §1
On the technique in general: Formazan colour is commonly taken as a measure of viable cells.

In test [3] the test system is DLD-1 Bax-Bak-/- colon cancer cells. The experiment in a line: MTT cytotoxicity assay, DLD-1 Bax-Bak-/-. In kind it is cell-based. Here is the method: (§2) Cell cultures and cytotoxicity assays have been used. Celastrol was dissolved in DMSO at a final concentration of 100 mmol/L and stored at −20° C. Cytotoxicity was assessed using the 3-(4,5-dimethylthiazol-2-yl)-2,5-diphenyltetrazolium bromide assay. 4000 cells from HCT116 p53^+/+ or p53^−/− colon cancer cells and DLD-1 Bax-Bak^+/+ or Bax-Bak^−/− colon cancer cells were seeded on 96-well plates per well. […] Subsequently, 10 μL of MTT reagents were added to each well and incubated at 37° C. for 4 hours followed by the addition of 100 μL solubilization buffer (10% SDS in 0.01 mol/L HCl) and overnight incubation. […] The percentage of cell viability was calculated using the following formula: Cell viability (%)=Cells number treated/Cells number DMSO control×100. Data were obtained from three independent experiments.

Test [4] concerns A2780 (Ovary) cisplatin sensitive cancer cells. Put plainly: MTT cytotoxicity assay, A2780 cisplatin sensitive. In kind it is cell-based, human. The settings on record: MTT, 3 days; read-out: IC50 A2780 (Ovary) (Cisplatin sensitive). How it is done: as §1
The subject of test [5] is DLD-1 Bax-Bak+/+ colon cancer cells. The experiment in a line: MTT cytotoxicity assay, DLD-1 Bax-Bak+/+. In kind it is cell-based. The settings on record: MTT, 3 days. Here is the method:
as §2

The subject of test [6] is SGC-7901 (Gastric) cisplatin resistant cancer cells. Put plainly: MTT cytotoxicity assay, SGC-7901 cisplatin resistant. The format is cell-based, human. Here is the method:
as §1

Test [7] relates to HCT116 p53-/- colon cancer cells. Put plainly: MTT cytotoxicity assay, HCT116 p53-/-. The format is cell-based. How it is done:
as §2

Test [8] relates to HCT116 p53+/+ colon cancer cells. The experiment in a line: MTT cytotoxicity assay, HCT116 p53+/+. The settings on record: MTT, 3 days; read-out: IC50 HCT116 p53+/+ colon cancer cells. The format is cell-based. Here is the method: as §2

With `N.N.[Cl][Pt][Cl]` [Cisplatin, cisplatin], the IC50 in test [1] was 1.26 µM; in test [2] (MTT, 3 days, read-out: IC50 A2780 (Ovary) (Cisplatin resistant)), 18.5 µM; in test [4] it was 1.24 µM; in test [6] (MTT, 3 days, read-out: IC50 SGC-7901 (Gastric) (Cisplatin resistant)) it was 6.19 µM; in test [7] (MTT, 3 days, read-out: IC50 HCT116 p53-/- colon cancer cells) it was 17.6 µM; in test [8], 0.19 µM. Moreover, the “Resistant Factor” value in test [2] (A2780 cisplatin resistant versus cisplatin sensitive) is recorded as 14.92; in test [3] (IC50 DLD-1 Bax-Bak-/- divided by IC50 DLD-1 Bax-Bak+/+), 1.84; in test [6] (SGC-7901 cisplatin resistant versus cisplatin sensitive), 4.9; in test [7] (IC50 HCT116 p53-/- divided by IC50 HCT116 p53+/+) it was 92.37. Further, in test [3] (MTT, 3 days), the “IC50 DLD-1 Bax-Bak-/- colon cancer cells” value amounted to 3.678 µg/mL. In test [5], the “IC50 DLD-1 Bax-Bak+/+ colon cancer cells” value turned out to be 1.994 µg/mL.
